Values joined by “and” are separate entries in the source; they are usually repeats but may differ in a detail not shown here. Equal values may be shown once. Blank lines part the entries; values can stand above or below the compound they belong to.
Experiments:
[1] = In vitro liver microsome assay, human; assay type: in vitro ADME; settings: pooled liver microsomes
[2] = In vitro liver microsome assay, mouse; assay type: in vitro ADME; settings: pooled liver microsomes
[3] = test system: T. b. brucei (strain BF427); assay: T. brucei growth inhibition assay; assay type: cell-based; settings: T. b. brucei BF427, 48 h, Alamar Blue
[4] = Brain:plasma compound concentration measurements in mice, 1 h post ip dose; assay type: in vivo; settings: single ip dose 5 mg/kg, 1 h postdose
[5] = Efficacy PK in acute model; assay type: in vivo, mice; settings: 50 mg/kg po b.i.d., prior to dose 7 (predose)
[6] = Brain time-course experiment of compound 57 after oral dosing; assay type: in vivo; settings: mice, single oral dose 50 mg/kg
[7] = Mouse oral pharmacokinetics; assay type: in vivo; settings: mice, 50 mg/kg oral, Tween 80/EtOH/DMSO vehicle
[8] = test system: HepG2 cells (human hepatocellular carcinoma); assay: Cytotoxicity in mammalian cells, HepG2; assay type: cell-based; settings: human hepatocytes, 48 h, growth inhibition by 50%
[9] = Efficacy PK in chronic model; assay type: in vivo, mice; settings: 50 mg/kg po b.i.d., prior to dose 15 (predose)
[10] = test system: CRL-8155 (human lymphoblasts); assay: Cytotoxicity in mammalian cells, CRL-8155; settings: 48 h, growth inhibition by 50%

SMILES: O=C(Nc1ccc2oc(-c3ccccc3)nc2c1)c1ccccc1 [Compound 30]
- half-life at 1.5 μM [1]: ≥ 60 min
- half-life at 1.5 μM [2]: 10 to 20 min

SMILES: O=C(Nc1ccc2oc(-c3ccccc3)nc2c1)N1CCCCC1 [Compound 32]
- half-life at 1.5 μM [1]: ≥ 60 min
- half-life at 1.5 μM [2]: 10 to 20 min

SMILES: O=C(Nc1ccc2sc(-c3cccc(F)c3)nc2c1)N1CCN(C(=O)Nc2ccc3sc(-c4cccc(F)c4)nc3c2)CC1 [Compound 49]
- T. brucei EC50 [3]: No activity was detected

SMILES: O=C(Nc1ccc2sc(-c3ccc(F)c(F)c3)nc2c1)N1CC[C@H](F)C1 [Compound 57, (S)-2-(3,4-Difluorophenyl)-5-(3-fluoro-N-pyrrolidylamido)-benzothiazole]
- [compd]brain [4]: 9.07 µM and 9.07 ± 3.973 µM
- average plasma level [5]: 9.1 ± 7.6 µM
- Cmax, brain [6]: 54.84 ± 4.64 µM
- [compd]brain ([6]; 24 h): submicromolar
- [compd]plasma ([6]; 24 h, LLQ is 0.010 μM, 50 mg/kg): undetectable
- percent of Cmax remaining at the 24 h time point [7]: Less than 1%
- HepG2 EC50 [8]: no detectable toxicity
- average plasma level [9]: 15.8 ± 8.7 µM
- CRL-8155 EC50 [10]: no detectable toxicity

The remaining lines, values ahead:

- half-life at 1.5 μM [2]: > 20 min
SMILES: O=C(Nc1ccc2sc(-c3ccccc3)nc2c1)N1CCCC1 [Compound 38]

- half-life at 1.5 μM [2]: > 20 min
SMILES: O=C(Nc1ccc2sc(-c3ccccc3)nc2c1)N1CCCCC1 [Compound 40]

- percent of Cmax remaining at the 24 h time point [7]: 34%
- percent of Cmax remaining at the 32 h time point [7]: > 17%
SMILES: O=C(Nc1ccc2sc(-c3ccc(F)c(F)c3)nc2c1)N1C[C@@H](F)[C@H](F)C1 [Compound 59]

Reference: paper PMC5362113 (Journal of medicinal chemistry, 2016)
